Measurements taken from patent US9365523B2, “Imidazolyl amide compounds and uses related thereto” (priority 2011, dated 2016).

What was measured:
MeV-Alaska [1] = assay: Viral CPE-reduction assay; conditions: Measles morbillivirus, read-out: EC50, suppression of viral cytopathic effect (CPE), CPE
Experimental: To rapidly pre-screen small libraries of compound analogs for antiviral activity, Vero-SLAM cells were infected with MeV-Alaska in four replicates per compound concentration in a 96-well plate format at an MOI of 0.4 pfu/cell in the presence of the inhibitor analyzed ranging from 75 μM to 293 nM in two-fold dilutions. At 96 hours post-infection, cell monolayers were subjected to crystal violet staining (0.1% crystal violet in 20% ethanol), and the absorbance of dried plates at 560 nm determined. Virus-induced cytopathicity was then calculated according to the formula [% rel. CPE=100-(experimental-minimum)/(maximum-minimum)*100], with minimum referring to infected, vehicle-treated wells and maximum to mock-infected wells.

HPIV3 = assay: Virus yield reduction assay, HPIV3; assay type: cell-based, human parainfluenzavirus type 3; conditions: Human respirovirus 3
MeV-Alaska [2] = assay: Virus yield reduction assay, MeV; assay type: cell-based, measles virus; conditions: Measles morbillivirus
influenza A/WSN (H1N1) = assay: microbe, parasite or virus in culture; assay type: cell-based; conditions: read-out: EC50, reduction of virus yield (WSN)
MeV-Alaska [3] = assay: Antiviral activity of compound analogs against MeV-Alaska (tables 1-5); assay type: cell-based, measles virus

## Cc1ccc(NC(=O)C(C)Sc2nc3ccccc3n2C2CCN(C(=O)OC(C)(C)C)CC2)c(Cl)c1 (stereo not shown) [drawing 220]
MeV-Alaska [1]
  EC50: 600 nM

## CCN1CCC(Cn2c(SC(C)C(=O)Nc3ccc(C)cc3Cl)nc3ccccc32)CC1 (stereo not shown)
MeV-Alaska [1]
  EC50: > 75000 nM

## Cc1ccc(NC(=O)C(C)Sc2nc3ccccc3n2CC2CCN(Cc3ccc(F)cc3)CC2)c(Cl)c1 (stereo not shown)
MeV-Alaska [1]
  EC50: 1180 nM

## COc1ccc(-n2c(S[C@@H](C)C(=O)Nc3ccc(C)cc3Cl)nc3ccccc32)cc1
HPIV3
  EC50: 80 nM
MeV-Alaska [2]; MeV
  EC50: 37.3 nM
Influenza A/WSN (H1N1)
  EC50: 5 nM

## CCN1CCCC1Cn1c(SC(C)C(=O)Nc2ccc(C)cc2Cl)nc2ccccc21 (stereo not shown) [drawing 214]
MeV-Alaska [1]
  EC50: 3580 nM

## COc1ccc(-n2c(SC(C)C(=O)Nc3ccc(C)cc3Cl)nc3ccccc32)cc1 (stereo not shown) [drawing 253]
HPIV3
  EC50: 80 nM
Influenza A/WSN (H1N1)
  EC50: 13.2 nM

## COc1cc(OC)cc(-n2c(SC(C)C(=O)Nc3ncc(C)cc3Cl)nc3ccccc32)c1 (stereo not shown) [Compound 118]
MeV-Alaska [3]; Table 3
  EC50: 800 nM

## Cc1cccc(-n2c(SC/C=C/c3ccccc3)nc3ccccc32)c1 [Compound 166]
MeV-Alaska [3]; Measles morbillivirus, Table 5
  EC50: > 10000 nM

## Cc1ccc(NC(=O)C(C)Sc2nc3ccccc3n2-c2cccc(CN3CCN(C)CC3)c2)c(Cl)c1 (stereo not shown) [Compound 65]
MeV-Alaska [3]; Table 2
  EC50: 1300 nM

## COc1ccc(-n2c([S+]([O-])C(C)C(=O)Nc3ccc(C)cc3Cl)nc3ccccc32)cc1 (stereo not shown) [Compound 125]
MeV-Alaska [3]; Measles morbillivirus, Table 5
  EC50: 1800 nM

## Cc1ccc(NC(=O)C(C)Sc2nc3ccccc3n2CCN2CCOCC2)c(Cl)c1 (stereo not shown)
MeV-Alaska [1]
  EC50: 4850 nM

## COc1ccc(-n2c(SCC(=O)Nc3ncc(Cl)cc3Cl)nc3ccccc32)cc1 [Compound 155]
MeV-Alaska [3]; Measles morbillivirus, Table 5
  EC50: 440 nM

## Cc1ccc(NC(=O)C(C)Sc2nc3ccccc3n2C2CCN(C)CC2)c(Cl)c1 (stereo not shown) [drawing 218]
MeV-Alaska [1]
  EC50: 1500 nM

## COc1ccc(-n2c(S[C@H](C)C(=O)Nc3ccc(C)cc3Cl)nc3ccccc32)cc1
MeV-Alaska [2]
  EC50: 879 nM
Influenza A/WSN (H1N1)
  EC50: 157 nM

## Cc1ccc(NC(=O)C(C)Sc2nc3ccccc3n2-c2ccccc2CN2CCOCC2)c(Cl)c1 (stereo not shown) [Compound 79]
MeV-Alaska [3]; Table 2
  EC50: 300 nM

## COc1ccc(-n2c(SC(C)C(=O)Nc3ccc(C)cc3Cl)nc3cccnc32)cc1 (stereo not shown) [drawing 227]
MeV-Alaska [1]
  EC50: 1650 nM

## Cc1ccc(NC(=O)CSc2nc(-c3ccccc3)c(-c3ccccc3)n2Cc2ccc(F)cc2)c(Cl)c1 [Compound 168]
MeV-Alaska [3]; Measles morbillivirus, Table 5
  EC50: > 75000 nM

## COc1ccc(Cn2c(CCC(=O)Nc3ccc(Cl)cc3Cl)nc3ccccc32)cc1 [Compound 160]
MeV-Alaska [3]; Measles morbillivirus, Table 5
  EC50: > 75000 nM

## Cc1ccc(NC(=O)[C@@H](C)Sc2nc3ccccc3n2-c2ccc(CCN3CCOCC3)cc2)c(Cl)c1
MeV-Alaska [2]
  EC50: 527 nM
Influenza A/WSN (H1N1)
  EC50: 117 nM

## COc1ccc(-n2c(SC(C)C(=O)Nc3cc(C)nn3C)nc3ccccc32)cc1 (stereo not shown) [Compound 18]
MeV-Alaska [3]; Table 1
  EC50: 900 nM

## COc1ccc(-n2c(SC(C)C(=O)Nc3ccc(F)cc3)nc3ccccc32)cc1 (stereo not shown) [Compound 47]
MeV-Alaska [3]; Table 1
  EC50: > 10000 nM

## Cc1ccc(NC(=O)C(C)Sc2nc3ccccc3n2-c2ccc(CN(C)C)cc2)c(Cl)c1 (stereo not shown) [Compound 98]
MeV-Alaska [3]; Table 2
  EC50: 1400 nM

## Cc1ccc(NC(=O)C(C)Sc2nc3ccccc3n2S(=O)(=O)C2CCCCC2)c(Cl)c1 (stereo not shown) [Compound 89]
MeV-Alaska [3]; Table 2
  EC50: 610 nM

## COc1ccc(-n2c(SC(C)C(=O)NC3CCCCC3)nc3ccccc32)cc1 (stereo not shown) [Compound 9]
MeV-Alaska [3]; Table 1
  EC50: > 75000 nM

## COc1ccc(-n2c(SC(C)C(=O)Nc3c(C)cccc3Cl)nc3ccccc32)cc1 (stereo not shown) [Compound 39]
MeV-Alaska [3]; Table 1
  EC50: 3900 nM

## O=C(CSc1nc2ccccc2n1-c1ccc(F)cc1)Nc1ncc(Cl)cc1Cl [Compound 156]
MeV-Alaska [3]; Measles morbillivirus, Table 5
  EC50: 1800 nM

## COc1ccc(-n2c(SC(C)C(=O)Nc3nccc(C)n3)nc3ccccc32)cc1 (stereo not shown) [Compound 11]
MeV-Alaska [3]; Table 1
  EC50: 600 nM

## CNCCc1ccc(-n2c(SC(C)C(=O)Nc3ccc(C)cc3Cl)nc3ccccc32)cc1 (stereo not shown) [drawing 226]
MeV-Alaska [1]
  EC50: 8720 nM

## Cc1ccc(NC(=O)CSc2nc3ccc(Br)cc3n2Cc2ccc(F)cc2)c(Cl)c1 [Compound 169]
MeV-Alaska [3]; Measles morbillivirus, Table 5
  EC50: > 75000 nM

## Cc1ccc(NC(=O)C(C)Sc2nc(-c3ccccc3)c(-c3ccccc3)n2Cc2ccc(F)cc2)c(Cl)c1 (stereo not shown) [Compound 128]
MeV-Alaska [3]; Measles morbillivirus, Table 5
  EC50: > 75000 nM

## Cc1ccc(NC(=O)C(C)Sc2nc3ccccc3n2-c2ccccc2)c(Cl)c1 (stereo not shown) [Compound 72]
MeV-Alaska [3]; Table 2
  EC50: 90 nM

## Cc1ccc(NC(=O)C(C)Sc2nc3ccccc3n2[C@H]2CC[C@H](O)CC2)c(Cl)c1 (stereo partly shown)
MeV-Alaska [1]
  EC50: 2740 nM

## Cc1ccc(NC(=O)C(C)Sc2nc3ccccc3n2-c2ccc(N(C)C)cc2)c(Cl)c1 (stereo not shown) [Compound 77]
MeV-Alaska [3]; Table 2
  EC50: 290 nM

## CC(Sc1nc2ccccc2n1-c1ccc(CC=O)cc1)C(=O)Nc1ccccc1Cl (stereo not shown)
MeV-Alaska [1]
  EC50: 18800 nM

## COc1ccc(Cn2c(CCC(=O)Nc3ccc(C)cc3Cl)nc3ccccc32)cc1 [Compound 137]
MeV-Alaska [3]; Measles morbillivirus, Table 5
  EC50: > 75000 nM

## CC(Sc1nc2ccccc2n1-c1ccc(CCO)cc1)C(=O)Nc1ccccc1Cl (stereo not shown)
MeV-Alaska [1]
  EC50: 4680 nM

## Cc1ccc(NC(=O)/C=C\c2nc3ccccc3n2-c2ccccc2)c(Cl)c1 [Compound 138]
MeV-Alaska [3]; Measles morbillivirus, Table 5
  EC50: > 50000 nM

## Cc1ccc(NC(=O)C(C)Sc2nc3ccccc3n2-c2ccc(CN3CCN(C)CC3)cc2)c(Cl)c1 (stereo not shown) [Compound 63]
MeV-Alaska [3]; Table 2
  EC50: 4900 nM
